Source: patent publication US9128100B2, “Non-invasive diagnostic method for the evaluation of intestinal lactase deficiency (hypolactasia)” (Venter Pharma, S.L., priority 2012, dated 2015)
Where “and” joins values, the source holds several entries; their conditions need not be identical. Equal values may be shown once.

How the values were obtained:
[1] = molecular target: T1, intestinal lactase (Homo sapiens, UniProt P09848); experiment: Lower limits of normal (cut-off points) of xylose in urine and blood of healthy controls after 4-GX; format: in vivo; conditions: mean minus 1.96 SD of healthy controls
T1 construct: after its oral administration it is hydrolysed by the intestinal mucosa enzyme; from tissue; host or cells: small-intestinal mucosa (enterocyte brush border) of living human volunteers and patients, in vivo
T1 sequence (P09848 869-1927): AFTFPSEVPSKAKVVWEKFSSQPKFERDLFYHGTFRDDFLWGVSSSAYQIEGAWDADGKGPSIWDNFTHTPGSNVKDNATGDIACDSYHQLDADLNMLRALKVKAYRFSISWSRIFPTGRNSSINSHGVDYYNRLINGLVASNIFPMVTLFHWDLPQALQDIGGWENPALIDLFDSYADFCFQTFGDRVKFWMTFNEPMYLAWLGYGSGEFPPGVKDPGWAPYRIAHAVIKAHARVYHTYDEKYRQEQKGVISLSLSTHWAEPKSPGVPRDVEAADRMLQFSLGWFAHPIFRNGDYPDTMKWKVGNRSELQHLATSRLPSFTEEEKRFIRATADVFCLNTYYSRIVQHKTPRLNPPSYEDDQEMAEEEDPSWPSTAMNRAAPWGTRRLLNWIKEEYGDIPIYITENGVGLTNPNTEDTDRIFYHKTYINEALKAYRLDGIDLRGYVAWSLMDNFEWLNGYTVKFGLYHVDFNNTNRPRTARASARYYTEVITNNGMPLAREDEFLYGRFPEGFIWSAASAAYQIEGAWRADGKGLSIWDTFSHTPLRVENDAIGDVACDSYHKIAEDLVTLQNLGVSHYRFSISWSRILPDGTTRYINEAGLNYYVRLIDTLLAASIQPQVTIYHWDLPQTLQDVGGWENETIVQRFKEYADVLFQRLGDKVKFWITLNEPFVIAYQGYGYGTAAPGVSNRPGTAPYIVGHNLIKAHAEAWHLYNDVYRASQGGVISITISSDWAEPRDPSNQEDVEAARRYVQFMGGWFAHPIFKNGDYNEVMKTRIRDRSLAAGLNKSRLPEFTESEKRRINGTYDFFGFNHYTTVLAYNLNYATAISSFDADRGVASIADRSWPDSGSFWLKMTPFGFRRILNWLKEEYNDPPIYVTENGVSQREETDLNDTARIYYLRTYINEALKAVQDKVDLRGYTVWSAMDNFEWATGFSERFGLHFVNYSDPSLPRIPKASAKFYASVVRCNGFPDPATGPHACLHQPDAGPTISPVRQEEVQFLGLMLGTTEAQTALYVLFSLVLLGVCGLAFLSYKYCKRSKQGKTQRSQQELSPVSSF
Excerpt: The indicator of the lower limit of normal was taken to be the difference between the average xylose concentrations in blood and/or the difference between the average total amounts of xylose excreted in the urine, and 1.96 times the standard deviation.
The data obtained with the 4-GX administration test in the healthy control group was used to determine the lower limits of normal of xylose in urine and blood (cut-off points). The cut-off points for the 4-GX test in urine were obtained for times of 4 hours and 5 hours because, as already seen in example 2, these times are the best for determining the amount of xylose excreted in urine following 4-GX administration and performing a reliable diagnosis of lactase deficiency. Similarly, the cut-off points for the determination of the blood xylose concentration following 4-GX administration were obtained for the time of 90 minutes following ingestion of the disaccharide. The difference between the average xylose concentration (in blood and the total quantity of xylose excreted in the urine) and 1.96 times the standard deviation was used for the lower limit of normal indicator. The lower limit of xylose accumulated in 4-hour urine was 27.58 mg; xylose accumulated in 5-hour urine was 37.87 mg and the increase in the concentration of plasma xylose after 90 minutes following ingestion of the product, compared to basal blood, was 0.97 mg/dL.

[2] = molecular target: T1, intestinal lactase; experiment: 4-GX test in 4-hour urine, patients with symptoms suggestive of lactose intolerance; format: in vivo
Experimental: The diagnostic tests to which these patients were subjected were: • Intestinal biopsy: determining intestinal lactase activity therein. • Hydrogen breath test after the oral administration to patients of 50 g of lactose. While this test was being carried out, several capillary-blood glucose test (Glycemia tests) were carried out, calculating the highest increase observed in the blood glucose concentration compared to basal glucose level before starting the test. • 4-GX test in total urine at 0-4 and 0-5 hours, which was orally administered to patients 0.5 g of this product (or 0.45 g in a 4-GX sample including 10 wt % water), collecting the total urine accumulated over 0-4 h and 0-5 h following the administration of 4-GX and determining the amount of excreted xylose in both volumes of urine. • 4-GX test in blood which was orally administered to patients 3 g of this product (or 2.7 g in a 4-GX sample including 10 wt % water) to determine the concentration of plasma xylose in a blood sample 90 minutes after ingestion of the product. The concentration obtained was compared to a basal blood sample extracted before ingestion of 4-GX.
The 4-GX was orally administered in a single dose dissolved in 100 ml of water.
From here on, the optimum dose of 0.5 g of 4-GX (or 0.45 g in a 4-GX sample including 10 wt % water) was used in the 4-GX urine test for the diagnosis of intestinal lactase deficiency by the non-invasive method described in the present invention. This dose was dissolved in 100 ml water, and following the test protocol, 2 samples of urine excreted during the 5 hours following the administration of the drug were taken, in two interval groups: at 4 hours following administration of 4-GX and at 5 hours following administration of 4-GX.
From the data obtained from the various urine tests for intestinal lactase deficiency following oral ingestion of 4-GX described in the present invention, a descriptive statistical analysis was performed of the amount of xylose excreted in the urine up to 4 hours and up to 5 hours following said administration. The same was done with the blodd test for intestinal lactase activity following oral ingestion of 4-GX, where descriptive statistical analysis was performed on the amount of xylose present in the plasma of subjects at 90 minutes following administration of 4-GX. The net increase in the plasma xylose concentration compared to basal values was also calculated.
To obtain the statistical parameters of lactase determination using the various 4-GX tests described in the present invention and later to compare them with the results obtained from the intestinal biopsy test, hydrogen in exhaled air test and capillary-blood glucose test, the normal limits of the measurement of the total amount of xylose excreted in 4-hour and 5-hour urine and the concentration of blood xylose after 90 minutes following ingestion of 4-GX described in Table 5 were used. The normal limits for the other tests were those used in common clinical practice for the diagnosis of lactose intolerance (Arola, H. (1994) Diagnosis of hypolactasia and lactose malabsorption. Scand. J. Gastroenterol. […] (Suppl), 26-35), which are:
For the measurement of lactase by intestinal biopsy, the lower normal limit is established at 10 units/g protein, with values less than this being considered positive.

[3] = 0.5 g 4-GX, 0-4 h urine, cut-off 27.58 mg, 205 patients
[4] = 0.5 g 4-GX, 4-hour urine, lactase in intestinal biopsy as gold standard
[5] = 4-hour urine, after correcting biopsy diagnosis
[6] = 4-hour urine, after correction of the biopsy diagnostic result (five discrepancies)
[7] = 4-hour urine, after correction of the biopsy diagnostic result (four discrepancies)
[8] = 4-hour urine, biopsy as gold standard
[9] = 4-hour urine, final criteria of Table 9

O=C[C@H](O)[C@@H](O)[C@@H](CO)O[C@@H]1O[C@H](CO)[C@H](O)[C@H](O)[C@H]1O [4-GX, 4-O-β-galactopyranosyl-D-xylose]
Cut-off point, total xylose in 4-hour urine ([1]; 4-GX 0.125 g): 11.88 mg | Cut-off point, total xylose in 5-hour urine ([1]; 4-GX 0.125 g): 16.72 mg | Cut-off point, total xylose in 4-hour urine ([1]; 4-GX 0.250 g): 20.62 mg | Cut-off point, total xylose in 5-hour urine ([1]; 4-GX 0.250 g): 28.08 mg | Cut-off point, total xylose in 4-hour urine ([1]; 4-GX 0.5 g): 27.58 mg | Cut-off point, total xylose in 5-hour urine ([1]; 4-GX 0.5 g): 37.87 mg | Cut-off point, xylose concentration in 90-min blood (increase over basal) ([1]; 4-GX 0.5 g): 0.41 mg/dL | Cut-off point, total xylose in 4-hour urine ([1]; 4-GX 1 g): 33.04 mg | Cut-off point, total xylose in 5-hour urine ([1]; 4-GX 1 g): 41.35 mg | Cut-off point, xylose concentration in 90-min blood (increase over basal) ([1]; 4-GX 1 g): 0.53 mg/dL | Cut-off point, total xylose in 4-hour urine ([1]; 4-GX 3 g): 45.58 mg | Cut-off point, total xylose in 5-hour urine ([1]; 4-GX 3 g): 69.57 mg and 69.75 mg | Cut-off point, xylose concentration in 90-min blood (increase over basal) ([1]; 4-GX 3 g): 0.97 mg/dL | Cut-off point, total xylose in 4-hour urine ([1]; 4-GX 6 g): 87.96 mg | Cut-off point, total xylose in 5-hour urine ([1]; 4-GX 6 g): 110.12 mg | Cut-off point, xylose concentration in 90-min blood (increase over basal) ([1]; 4-GX 6 g): 1.44 mg/dL | No. Negative [2, 3]: 100 | No. Positive (patients presenting intestinal lactase deficiency) [2, 3]: 105 | Percentage of patients negative [2, 3]: 49% | Percentage of patients positive [2, 3]: 51.2% and 51% | Negative predictive value [2, 4]: 90% | Positive predictive value [2, 4]: 93.3% and 93.33% | Sensitivity [2, 4]: 90.7% and 90.74% | Specificity [2, 4]: 92.8% and 92.78% | sensitivity calculated using the ROC curves ([2]; 4-hour urine samples): 90.7% | specificity calculated using the ROC curves ([2]; 4-hour urine samples): 93.8% | range of recalculated sensitivity, specificity, positive and negative predictive values ([2]; 4-hour urine test, after correcting biopsy diagnosis): 96.00-98.10 | false negatives [2, 5]: 3.74% | negative likelihood ratio [2, 5]: 0.038 | positive likelihood ratio [2, 5]: 47.168 | Negative predictive value [2, 6]: 96.00% | Positive predictive value [2, 6]: 98.10% | Sensitivity [2, 6]: 96.26% | Specificity [2, 6]: 97.96% | Negative predictive value [2, 7]: 97.00% | Positive predictive value [2, 7]: 99.05% | Sensitivity [2, 7]: 97.20% | Specificity [2, 7]: 98.98% | area under the ROC curve [2, 8]: 0.9282 | false negatives [2, 8]: 9.3% | false positives [2, 8]: 7.2% | concordant positive results, percentage [2, 9]: 96.3% | final number of concordant positive results [2, 9]: 103 | negative results (concordant), percentage [2, 9]: 98.0% | number of negative results (concordant) [2, 9]: 96
